Earlier results as cited in US9512158B2, “Enhanced immunogenicity of tumor associated antigens by addition of alphagal epitopes” (NewLink Genetics Corp., priority 2006, dated 2016).

Legend:
αGT knockout mice = settings: cited from earlier work
MHC-I H2-K^b = biological target: T1, MHC-I H2-K^b (Mus musculus, UniProt P01901); settings: compared with peptide #1 TWHRYHLL; cited from earlier work
T1 sequence (P01901 22-369): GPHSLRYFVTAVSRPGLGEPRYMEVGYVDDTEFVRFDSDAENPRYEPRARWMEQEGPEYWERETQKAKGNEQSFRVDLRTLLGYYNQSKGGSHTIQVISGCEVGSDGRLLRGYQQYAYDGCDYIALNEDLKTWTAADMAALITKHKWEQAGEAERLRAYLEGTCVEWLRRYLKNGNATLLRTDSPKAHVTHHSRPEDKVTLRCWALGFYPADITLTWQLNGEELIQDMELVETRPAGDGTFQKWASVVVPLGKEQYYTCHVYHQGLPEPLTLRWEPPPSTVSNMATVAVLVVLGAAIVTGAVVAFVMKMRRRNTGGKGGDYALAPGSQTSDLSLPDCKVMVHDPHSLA
T1 sequence (P01887 21-119 partner): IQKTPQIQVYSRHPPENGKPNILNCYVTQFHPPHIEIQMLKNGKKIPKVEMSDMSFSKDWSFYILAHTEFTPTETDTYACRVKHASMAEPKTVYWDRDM

B16 melanoma = settings: cited from earlier work

| Substance | T cell response to BSA (αGT knockout mice; mouse, in vivo) | production of anti-BSA IgG antibodies (αGT knockout mice; without adjuvant) | binding affinity to MHC-I H2-K^b (MHC-I H2-K^b) | protective immunity against B16 melanoma (B16 melanoma; C57Bl/6 mice (H-2K^b), in the presence of adjuvant) | immunogenicity (B16 melanoma; in the absence of adjuvant) |
| --- | --- | --- | --- | --- | --- |
| BSA conjugated with αGal: BSA conjugated with αGal | increase | significant production |  |  |  |
| TAYRYHLL |  |  | better binding affinity | induces protective immunity | not immunogenic |
